# In PubChem BioAssay (NCI):
#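 All cell lines were grown in 96-well plates and treated with compound for 48 hours. At the TGI there is no net growth.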
# Columns and labels:
# Test in all cases: inhibition of tumour cell growth, NCI panel, 48 h
# UACC-62 melanoma = system: UACC-62 melanoma
# UACC-257 melanoma = system: UACC-257 melanoma
# NCI-H460 lung = system: NCI-H460 lung
# U251 CNS = system: U251 CNS
# OVCAR-8 ovarian = system: OVCAR-8 ovarian
# K-562 leukemia = system: K-562 leukemia
# MALME-3M melanoma = system: MALME-3M melanoma
# HCT-15 colon = system: HCT-15 colon
# HL-60(TB) leukemia = system: HL-60(TB) leukemia
# SF-268 CNS = system: SF-268 CNS
# MOLT-4 leukemia = system: MOLT-4 leukemia
# OVCAR-4 ovarian = system: OVCAR-4 ovarian
# SF-295 CNS = system: SF-295 CNS
# MDA-MB-435 = system: MDA-MB-435
# PC-3 prostate = system: PC-3 prostate
# EKVX NSCLC = system: EKVX NSCLC
# MDA-N = system: MDA-N
# CCRF-CEM leukemia = system: CCRF-CEM leukemia
Structure (SMILES),TGI (UACC-62 melanoma),TGI (UACC-257 melanoma),TGI (NCI-H460 lung),TGI (U251 CNS),TGI (OVCAR-8 ovarian),TGI (K-562 leukemia),TGI (MALME-3M melanoma),TGI (HCT-15 colon),TGI (HL-60(TB) leukemia),TGI (SF-268 CNS),TGI (MOLT-4 leukemia),TGI (OVCAR-4 ovarian),TGI (SF-295 CNS),TGI (MDA-MB-435),TGI (PC-3 prostate),TGI (EKVX NSCLC),TGI (MDA-N),TGI (CCRF-CEM leukemia)
Cc1cc(C=O)c2c(=O)c3c(O)ccc(/C=C/C(C)C)c3oc2c1,> 100 µM,> 100 µM,> 100 µM,> 100 µM,> 100 µM,> 100 µM,> 100 µM,99.6 µM,59.4 µM,> 100 µM,86.5 µM,> 100 µM,> 100 µM,–,–,–,–,–
CS(=O)(=O)CCC1CCC(=O)O1 (configuration not stated),–,> 100 µM,> 100 µM,> 100 µM,> 100 µM,> 100 µM,> 100 µM,> 100 µM,> 100 µM,> 100 µM,> 100 µM,–,> 100 µM,> 100 µM,> 100 µM,> 100 µM,–,–
Cc1csc(=Nc2ccccc2)n1CCC(O)(P(=O)(O)O)P(=O)(O)O,> 100 µM,> 100 µM,> 100 µM,–,> 100 µM,–,> 100 µM,> 100 µM,–,> 100 µM,–,–,> 100 µM,–,> 100 µM,> 100 µM,> 100 µM,–
COC(=O)N/N=C(\C)c1sc(-c2nc(C)c(/C(C)=N/NC(=O)OC)s2)nc1C,> 100 µM,> 100 µM,> 100 µM,> 100 µM,> 100 µM,> 100 µM,> 100 µM,> 100 µM,> 100 µM,> 100 µM,> 100 µM,> 100 µM,> 100 µM,–,–,> 100 µM,–,> 100 µM
COc1ccc2cc3n(c(=O)c2c1)CCc1c-3cc(OC)c(OC)c1OC,> 100 µM,> 100 µM,–,> 100 µM,> 100 µM,> 100 µM,> 100 µM,> 100 µM,> 100 µM,> 100 µM,> 100 µM,> 100 µM,> 100 µM,–,–,> 100 µM,–,> 100 µM
Cc1ccccc1NC(=O)CC(=O)NNCC(=O)Nc1nnc(-c2ccccc2)s1,> 100 µM,> 100 µM,> 100 µM,> 100 µM,> 100 µM,> 100 µM,–,> 100 µM,85.3 µM,> 100 µM,> 100 µM,33.5 µM,> 100 µM,–,–,> 100 µM,–,–
CN(CC(=O)Nc1ccccc1C(=O)O)c1ccccc1,–,> 100 µM,> 100 µM,> 100 µM,> 100 µM,> 100 µM,> 100 µM,> 100 µM,> 100 µM,> 100 µM,> 100 µM,> 100 µM,> 100 µM,–,> 100 µM,> 100 µM,> 100 µM,> 100 µM
COC(=O)/C=C1\C(CO[Si](C)(C)C(C)(C)C)OC(n2ccc(=O)[nH]c2=O)C1O (configuration not stated),54.1 µM,> 40.4 µM,37.8 µM,> 87.3 µM,> 100 µM,> 95.4 µM,–,35.2 µM,–,2.39 µM,> 31.6 µM,> 100 µM,> 100 µM,> 43 µM,> 27.9 µM,59.8 µM,> 66.4 µM,26.1 µM
CCOC(OCC)(OCC)C(Br)CC (configuration not stated),> 100 µM,> 100 µM,> 100 µM,> 100 µM,> 100 µM,> 100 µM,> 100 µM,–,> 100 µM,> 100 µM,> 100 µM,> 100 µM,> 100 µM,–,–,> 100 µM,–,> 100 µM
CN(C)c1ccc(/C=C2\CCc3ccccc3C2=O)cc1Br,> 100 µM,> 100 µM,> 100 µM,> 100 µM,> 100 µM,> 100 µM,> 100 µM,> 100 µM,58.5 µM,> 100 µM,> 100 µM,> 100 µM,> 100 µM,–,–,> 100 µM,–,> 100 µM
COC(=O)[C@@H]1Cc2ccc(OC)c(c2)OCCC(=O)N1,> 100 µM,> 100 µM,–,> 100 µM,> 100 µM,> 100 µM,> 100 µM,> 100 µM,–,> 100 µM,> 100 µM,> 100 µM,> 100 µM,> 100 µM,> 100 µM,> 100 µM,> 100 µM,> 100 µM
CCCCCCCCCCCCCCCCOP(=O)([O-])OCC[N+](C)(C)C1CC(C)(C)N(O)C(C)(C)C1,> 100 µM,> 100 µM,> 100 µM,> 100 µM,> 100 µM,–,> 100 µM,> 100 µM,–,> 100 µM,–,> 100 µM,> 100 µM,> 100 µM,> 100 µM,> 100 µM,–,–
CC1OC(OC2C(OC(=O)[C@]34CCC(C)(C)C[C@H]3C3=CC[C@@H]5[C@@]6(C)CC[C@H](OC7OC(CO)C(O)C(O)C7OC7OC(CO)C(O)C(O)C7O)C(C)(C)[C@@H]6CC[C@@]5(C)[C@]3(C)CC4)OCC(O)C2O)C(O)C(O)C1OC1OCC(O)C(O)C1O (some centres not stated),33.1 µM,9.17 µM,> 67.4 µM,29.2 µM,38.9 µM,27.6 µM,12.6 µM,32.1 µM,15.1 µM,21.4 µM,46.3 µM,29.5 µM,25.7 µM,7.34 µM,25.8 µM,18.6 µM,–,42.3 µM
c1ccc(C(NC2=NCCO2)C2CC2)cc1 (configuration not stated),> 100 µM,> 100 µM,> 100 µM,> 100 µM,> 100 µM,–,> 100 µM,> 100 µM,–,> 100 µM,> 100 µM,> 100 µM,> 100 µM,> 100 µM,> 100 µM,> 100 µM,> 100 µM,–
CCOc1ccc(OP2(=O)NC(=O)C=C(C)N2)cc1 (configuration not stated),> 100 µM,> 100 µM,> 100 µM,> 100 µM,> 100 µM,> 100 µM,> 100 µM,> 100 µM,> 100 µM,> 100 µM,> 100 µM,> 100 µM,> 100 µM,–,–,> 100 µM,–,> 100 µM
CN1S(=O)(=O)N(C)P12(N=P(CP(=NP13(N(C)S(=O)(=O)N1C)N(C)S(=O)(=O)N3C)(c1ccccc1)c1ccccc1)(c1ccccc1)c1ccccc1)N(C)S(=O)(=O)N2C,> 100 µM,> 100 µM,> 100 µM,> 100 µM,> 100 µM,> 100 µM,> 100 µM,> 100 µM,> 100 µM,> 100 µM,> 100 µM,–,–,–,–,> 100 µM,–,> 100 µM
CCCCCCC1OC23OC1CCC2C(O)CCC3O (configuration not stated),> 100 µM,> 100 µM,> 100 µM,> 100 µM,> 100 µM,> 100 µM,> 100 µM,> 100 µM,> 100 µM,> 100 µM,> 100 µM,> 100 µM,> 100 µM,> 100 µM,> 100 µM,> 100 µM,–,–
CC(=O)Nc1nc2c(=O)c3ccccc3sc2s1,> 100 µM,> 100 µM,> 100 µM,–,> 100 µM,> 100 µM,–,> 100 µM,> 100 µM,> 100 µM,> 100 µM,–,> 100 µM,–,> 100 µM,> 100 µM,> 100 µM,> 100 µM
COc1cc(Nc2nc3cc(C)ccc3nc2-c2ccccc2)cc(OC)c1OC,63.6 µM,> 100 µM,40 µM,> 100 µM,> 100 µM,> 100 µM,56.8 µM,48.7 µM,54.5 µM,> 100 µM,76.6 µM,> 100 µM,56 µM,–,–,> 100 µM,–,> 100 µM
CC1(C)CC(=O)C(C(=O)Nc2cccs2)=C(O)C1,> 100 µM,> 100 µM,> 100 µM,> 100 µM,> 100 µM,> 100 µM,> 100 µM,> 100 µM,57.7 µM,> 100 µM,88.1 µM,> 100 µM,> 100 µM,–,–,> 100 µM,–,95.3 µM
CC(=O)NC(CCCNC(=O)OCc1ccccc1)C(=O)NCc1ccccc1 (configuration not stated),> 100 µM,> 100 µM,> 100 µM,> 100 µM,> 100 µM,> 100 µM,> 100 µM,> 100 µM,–,> 100 µM,> 100 µM,> 100 µM,> 100 µM,–,–,> 100 µM,–,> 100 µM
CC(C)(C)C1CC[C@H]2c3c([nH]c4ccccc34)[C@H]3C(=O)N(c4ccc(F)cc4)C(=O)[C@H]3[C@H]2C1 (some centres not stated),29.6 µM,54.2 µM,26.4 µM,20.8 µM,25.2 µM,42.5 µM,36.8 µM,> 100 µM,–,30.8 µM,27.8 µM,23.7 µM,28.3 µM,–,–,36.9 µM,–,35.5 µM
COC(=O)C1CC2CC1C1C2SC(F)(F)C1(F)F (configuration not stated),> 100 µM,> 100 µM,> 100 µM,> 100 µM,> 100 µM,–,> 100 µM,> 100 µM,–,> 100 µM,> 100 µM,> 100 µM,> 100 µM,> 100 µM,> 100 µM,> 100 µM,> 100 µM,–
CCOC(=O)C1C(NC(N)=O)N(Cc2ccccc2)C(=O)N1Cc1ccccc1 (configuration not stated),> 100 µM,> 100 µM,> 100 µM,32 µM,> 100 µM,> 100 µM,> 100 µM,> 100 µM,> 100 µM,> 100 µM,> 100 µM,> 100 µM,> 100 µM,–,–,> 100 µM,–,> 100 µM
CCOC(=O)C1(C)CCC(C(=O)OC)C1=O (configuration not stated),> 100 µM,> 100 µM,28.6 µM,> 100 µM,> 100 µM,> 100 µM,> 100 µM,43.1 µM,> 100 µM,> 100 µM,> 100 µM,> 100 µM,> 100 µM,–,–,> 100 µM,–,57.7 µM
C/C=C1/C=CC2c3[nH]c4ccccc4c3CCN2C1 (configuration not stated),> 400 µM,> 400 µM,> 400 µM,> 400 µM,> 400 µM,> 400 µM,> 400 µM,> 400 µM,> 400 µM,> 400 µM,> 400 µM,–,> 400 µM,–,–,> 400 µM,–,> 400 µM
COC(=O)N/N=c1\cc(C(=O)Nc2ccc(C)c(C)c2)oc2cc(O)ccc12,> 100 µM,> 100 µM,> 100 µM,> 100 µM,> 100 µM,> 100 µM,> 100 µM,> 100 µM,> 100 µM,> 100 µM,> 100 µM,> 100 µM,> 100 µM,–,–,> 100 µM,–,> 100 µM
O=c1c2cc(Br)ccc2nc(CNc2ccccc2)n1-c1ccccc1,23.5 µM,98 µM,45.4 µM,31.8 µM,> 57 µM,58.1 µM,28.4 µM,> 47.9 µM,39.7 µM,> 54.7 µM,> 67.7 µM,23 µM,> 58 µM,–,–,40.7 µM,–,13.7 µM
CCOC(=O)c1cn(-c2ccc([N+](=O)[O-])cc2)c(=S)n2c1nc1ccccc12,> 100 µM,> 100 µM,> 100 µM,> 100 µM,> 100 µM,> 100 µM,–,> 100 µM,–,–,75.7 µM,> 100 µM,> 100 µM,> 100 µM,> 100 µM,> 100 µM,> 100 µM,> 100 µM
O=C(c1c(F)c(F)c(F)c(F)c1F)n1c(=S)n(C(=O)c2c(F)c(F)c(F)c(F)c2F)c2ccccc21,> 100 µM,> 100 µM,> 100 µM,> 100 µM,> 100 µM,51.5 µM,–,> 100 µM,45.6 µM,> 100 µM,54.3 µM,> 100 µM,> 100 µM,–,> 100 µM,–,> 100 µM,49.9 µM
